Test results from ChEMBL document CHEMBL3046808, “Novel 2-(E)-substituted benzylidene-6-(N-substituted aminomethyl)cyclohexanones and cyclohexanols as analgesic and anti-inflammatory agents” (2013).

Columns and labels:
Assay type in all cases: functional
[1] = test system: Mus musculus; assay: Analgesic activity in Kunming Mus musculus (mouse) assessed as increase in pain threshold at 200 mg/kg, po after 1 hr by hot plate method (reference value: 4.2%)
[2] = test system: Rattus norvegicus; assay: Anti-inflammatory activity in Wistar Rattus norvegicus (rat) assessed as inhibition of carrageenan-induced paw edema at 200 mg/kg, po administered 1 hr prior to carrageenan-challenge measured after 3 hr relative to untreated control
[3] = test system: Mus musculus; assay: Analgesic activity in Kunming Mus musculus (mouse) assessed as inhibition of acetic acid-induced writhing at 200 mg/kg, po administered 1 hr prior to acetic acid challenge measured for 15 min relative to untreated control
[4] = test system: Mus musculus; assay: Anti-inflammatory activity in Kunming Mus musculus (mouse) assessed as inhibition of xylene-induced ear swelling at 200 mg/kg, po administered 1 hr prior to xylene challenge measured after 30 min relative to untreated control

## Cc1cccc(N(C)CC2CCC/C(=C\c3ccc(S(C)(=O)=O)cc3)C2=O)c1 (configuration not stated)
[1]
  Activity: 109.98%
[2]
  inhibition in vivo at 200 mg/kg: 36.2%
[3]
  inhibition in vivo at 200 mg/kg: 72.8%
[4]
  inhibition in vivo at 200 mg/kg: 36.7%

## Cc1ccc(NCC2CCC/C(=C\c3ccccc3)C2=O)cc1 (configuration not stated)
[1]
  Activity: 166.19%
[2]
  inhibition in vivo at 200 mg/kg: 72.3%
[3]
  inhibition in vivo at 200 mg/kg: 82.8%
[4]
  inhibition in vivo at 200 mg/kg: 56.4%

## CN(CC1CCC/C(=C\c2ccccc2)C1=O)c1ccccc1 (configuration not stated)
[1]
  Activity: 109.59%
[2]
  inhibition in vivo at 200 mg/kg: 76.6%
[3]
  inhibition in vivo at 200 mg/kg: 69.7%
[4]
  inhibition in vivo at 200 mg/kg: 49.7%

## Cc1ccc(N(C)CC2CCC/C(=C\c3ccccc3)C2=O)cc1 (configuration not stated)
[1]
  Activity: 146.12%
[2]
  inhibition in vivo at 200 mg/kg: 25.5%
[3]
  inhibition in vivo at 200 mg/kg: 81%
[4]
  inhibition in vivo at 200 mg/kg: 18.2%

## Cc1cccc(N(C)CC2CCC/C(=C\c3ccccc3)C2=O)c1 (configuration not stated)
[1]
  Activity: 108.45%
[2]
  inhibition in vivo at 200 mg/kg: 46.8%
[3]
  inhibition in vivo at 200 mg/kg: 76.7%
[4]
  inhibition in vivo at 200 mg/kg: 44.9%

## Cc1ccc(/C=C2\CCCC(CN(C)c3ccccc3)C2=O)cc1 (configuration not stated)
[1]
  Activity: 79.04%
[2]
  inhibition in vivo at 200 mg/kg: 44.7%
[3]
  inhibition in vivo at 200 mg/kg: 68.2%
[4]
  inhibition in vivo at 200 mg/kg: 39.5%

## Cc1ccc(/C=C2\CCCC(CN(C)c3ccc(C)cc3)C2=O)cc1 (configuration not stated)
[1]
  Activity: 71.6%
[2]
  inhibition in vivo at 200 mg/kg: 38.3%
[3]
  inhibition in vivo at 200 mg/kg: 76.5%
[4]
  inhibition in vivo at 200 mg/kg: 27.6%

## Cc1ccc(/C=C2\CCCC(CN(C)c3cccc(C)c3)C2=O)cc1 (configuration not stated)
[1]
  Activity: 75.5%
[2]
  inhibition in vivo at 200 mg/kg: 36.2%
[3]
  inhibition in vivo at 200 mg/kg: 75.8%
[4]
  inhibition in vivo at 200 mg/kg: 35.4%

## CN(CC1CCC/C(=C\c2ccc(S(C)(=O)=O)cc2)C1=O)c1ccccc1 (configuration not stated)
[1]
  Activity: 142.7%
[2]
  inhibition in vivo at 200 mg/kg: 51.1%
[3]
  inhibition in vivo at 200 mg/kg: 81%
[4]
  inhibition in vivo at 200 mg/kg: 46.9%

## Cc1ccc(N(C)CC2CCC/C(=C\c3ccc(S(C)(=O)=O)cc3)C2=O)cc1 (configuration not stated)
[1]
  Activity: 155.12%
[2]
  inhibition in vivo at 200 mg/kg: 31.9%
[3]
  inhibition in vivo at 200 mg/kg: 84.5%
[4]
  inhibition in vivo at 200 mg/kg: 27%

## Cc1ccc(N(C)CC2CCC/C(=C\c3ccccc3)C2(O)c2ccccc2)cc1 (racemic)
[1]
  Activity: 70.08%
[2]
  inhibition in vivo at 200 mg/kg: 59.6%
[3]
  inhibition in vivo at 200 mg/kg: 64.2%
[4]
  inhibition in vivo at 200 mg/kg: 66.7%

## Cc1cccc(N(C)CC2CCC/C(=C\c3ccccc3)C2(O)c2ccccc2)c1 (racemic)
[1]
  Activity: 83.22%
[2]
  inhibition in vivo at 200 mg/kg: 36.2%
[3]
  inhibition in vivo at 200 mg/kg: 70.6%
[4]
  inhibition in vivo at 200 mg/kg: 23.1%

## COc1cccc(C2(O)/C(=C/c3ccccc3)CCCC2CN(C)c2ccccc2)c1 (racemic)
[1]
  Activity: 162.71%
[2]
  inhibition in vivo at 200 mg/kg: 38.3%
[3]
  inhibition in vivo at 200 mg/kg: 82.2%
[4]
  inhibition in vivo at 200 mg/kg: 34.7%

## COc1cccc(C2(O)/C(=C/c3ccccc3)CCCC2CN(C)c2ccc(C)cc2)c1 (racemic)
[1]
  Activity: 110.54%
[2]
  inhibition in vivo at 200 mg/kg: 57.5%
[3]
  inhibition in vivo at 200 mg/kg: 77.8%
[4]
  inhibition in vivo at 200 mg/kg: 41.5%

## COc1cccc(C2(O)/C(=C/c3ccccc3)CCCC2CN(C)c2cccc(C)c2)c1 (racemic)
[1]
  Activity: 116.52%
[2]
  inhibition in vivo at 200 mg/kg: 44.7%
[3]
  inhibition in vivo at 200 mg/kg: 79.9%
[4]
  inhibition in vivo at 200 mg/kg: 36%

## COc1ccc(C2(O)/C(=C/c3ccccc3)CCCC2CN(C)c2ccccc2)cc1 (racemic)
[1]
  Activity: 121.45%
[2]
  inhibition in vivo at 200 mg/kg: 38.3%
[3]
  inhibition in vivo at 200 mg/kg: 75.7%
[4]
  inhibition in vivo at 200 mg/kg: 26.5%

## COc1ccc(C2(O)/C(=C/c3ccccc3)CCCC2CN(C)c2ccc(C)cc2)cc1 (racemic)
[1]
  Activity: 117.46%
[2]
  inhibition in vivo at 200 mg/kg: 21.3%
[3]
  inhibition in vivo at 200 mg/kg: 78.7%
[4]
  inhibition in vivo at 200 mg/kg: 26.5%

## COc1cccc(C2(C)/C(=C/c3ccc(C)cc3)CCCC2CN(C)c2ccccc2)c1 (racemic)
[1]
  Activity: 153.01%
[2]
  inhibition in vivo at 200 mg/kg: 25.5%
[3]
  inhibition in vivo at 200 mg/kg: 80.9%
[4]
  inhibition in vivo at 200 mg/kg: 18%

## COc1cccc(C2(O)/C(=C/c3ccc(C)cc3)CCCC2CN(C)c2ccc(C)cc2)c1 (racemic)
[1]
  Activity: 125.34%
[2]
  inhibition in vivo at 200 mg/kg: 21.3%
[3]
  inhibition in vivo at 200 mg/kg: 81.6%
[4]
  inhibition in vivo at 200 mg/kg: 22.9%

## COc1ccc(C2(O)/C(=C/c3ccc(C)cc3)CCCC2CN(C)c2ccccc2)cc1 (racemic)
[1]
  Activity: 106.84%
[2]
  inhibition in vivo at 200 mg/kg: 17%
[3]
  inhibition in vivo at 200 mg/kg: 72.1%
[4]
  inhibition in vivo at 200 mg/kg: 16.3%

## COc1ccc(C2(O)/C(=C/c3ccc(C)cc3)CCCC2CN(C)c2ccc(C)cc2)cc1 (racemic)
[1]
  Activity: 93.41%
[2]
  inhibition in vivo at 200 mg/kg: 29.8%
[3]
  inhibition in vivo at 200 mg/kg: 62.2%
[4]
  inhibition in vivo at 200 mg/kg: 29.9%

## COc1ccc(C2(O)/C(=C/c3ccc(C)cc3)CCCC2CN(C)c2cccc(C)c2)cc1 (racemic)
[1]
  Activity: 93.52%
[2]
  inhibition in vivo at 200 mg/kg: 29.8%
[3]
  inhibition in vivo at 200 mg/kg: 74.2%
[4]
  inhibition in vivo at 200 mg/kg: 24.5%

## CC(C)Cc1ccc(C(C)C(=O)O)cc1 (configuration not stated) [IBUPROFEN]
[1]
  Activity: 158.56%
[2]
  inhibition in vivo at 200 mg/kg: 53.2%
[3]
  inhibition in vivo at 200 mg/kg: 84.1%
[4]
  inhibition in vivo at 200 mg/kg: 40.1%
